Laboratory results published in PubChem BioAssay (NCI).
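Assay format: 96-well plates, 48-hour exposure. Abbreviation: GI50, concentration required for 50% inhibition of growth. TGI: total growth inhibition.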

Columns and labels:
Test in all cases: inhibition of tumour cell growth, NCI panel, 48 h
[1] = test system: SK-MEL-2 melanoma
[2] = test system: ACHN renal
[3] = test system: HT29 colon
[4] = test system: MCF7 breast
[5] = test system: 786-0 renal
[6] = test system: SK-MEL-5 melanoma
[7] = test system: LOX IMVI melanoma
[8] = test system: MDA-N
[9] = test system: COLO 205 colon
[10] = test system: UACC-62 melanoma
[11] = test system: HOP-92 NSCLC

Row | SMILES | TGI [1] [µM] | TGI [2] [µM] | TGI [3] [µM] | TGI [4] [µM] | TGI [5] [µM] | TGI [6] [µM] | TGI [7] [µM] | TGI [8] [µM] | TGI [9] [µM] | GI50 [1] [µM] | GI50 [2] [µM] | GI50 [3] [µM] | GI50 [4] [µM] | GI50 [6] [µM] | GI50 [7] [µM] | GI50 [10] [µM] | TGI [10] [µM] | GI50 [11] [µM] | TGI [11] [µM] | GI50 [9] [µM]
1 | Cn1c(CO)ccc1-c1ccc(-c2ccc[se]2)[se]1 | > 100 | > 100 | > 100 | > 52.4 | > 71.2 | > 90.2 | > 100 | > 61.5 | > 84.2 |  |  |  |  |  |  |  |  |  |  | 
2 | COc1cc(OC)cc(-c2n/c(=C\c3c(O)[nH]c4ccc(OC)cc34)cc3c2=Nc2ccccc2-3)c1 | 37.3 | > 100 | 4.15 | 3.41 |  | 25.2 | 12.8 |  |  | 20.8 | > 100 | 2.06 | 1.4 | 12.1 | 3.1 | 18.3 | 36 |  |  | 
3 | CCN(CC)CCN1C(=O)c2c(c3c4ccccc4[nH]c3c3ccc4ccccc4c23)C1=O | 6.5 | 2.87 |  | 1.96 |  | 3.12 |  |  | 10.8 | 2.51 | 1.54 |  | 0.0836 | 1.71 |  | 1.57 | 2.97 | 1.42 | 2.95 | 2.56
4 | COc1c2c(c3ccccc3c1O)C1C=CC2C1 (centres undefined) | 31.5 | 27.5 | 39.2 |  |  | 19.1 | 17.1 |  | 30.1 |  |  |  |  |  |  |  | 30.4 |  |  | 
5 | Cc1oc2c(c1C)S(=O)(=O)C(C#N)=C(N(C)C)N2 | > 100 | > 100 | > 100 | > 100 | > 100 | > 100 | > 100 | > 100 |  |  |  |  |  |  |  |  | > 100 |  | > 100 | 
